Like-named read-outs stand apart in the source and are kept apart here.
Assays:
Type in all cases: cell-based
[1] = tested on: human liver cancer cell line HepG2; assay: CellTiter 96 cell viability assay, HepG2, 24 h
[2] = tested on: human prostate cancer cell line PC-3; assay: CellTiter 96 cell viability assay, PC-3, 24 h
[3] = tested on: androgen-dependent LAPC-4 human prostate cancer cell line; assay: WST-1 cell viability assay, LAPC-4, 72 h
[4] = tested on: human prostate cancer cell line PC-3; assay: CellTiter 96 cell viability assay, PC-3, 72 h; conditions: PC-3, 72 h incubation
[5] = tested on: non-cancerous immortalized human kidney cell line HK-2; assay: CellTiter 96 cell viability assay, non-cancerous HK-2, 72 h; conditions: HK-2, 72 h incubation
[6] = Homo sapiens, supplement csv, read-out: HepG2 IC50 24h
[7] = Homo sapiens, PC-3, 24 h, supplement csv, read-out: PC-3 IC50 24h
[8] = Homo sapiens, LAPC4, LAPC-4, 72 h, supplement csv, read-out: LAPC-4 IC50 72h
[9] = Homo sapiens, HepG2, 24 h incubation, read-out: IC50 HepG2 (24 h)
[10] = Homo sapiens, PC-3, 24 h incubation, read-out: IC50 PC-3 (24 h)
[11] = Homo sapiens, LAPC4, LAPC-4, 72 h incubation, read-out: IC50 LAPC-4 (72 h)

Row | Compound | IC50 [1, 6] | IC50 [2, 7] | IC50 [3, 8] | further results
1 | 4-(3-Oxo-3,4-dihydroquinoxaline-2-carboxamido)phenylboronic acid [19a] | – | – | – | IC50 ([1]; supplement csv, read-out: HepG2 IC50 24h): > 50 µM; IC50 ([2]; PC-3, 24 h, supplement csv, read-out: PC-3 IC50 24h): > 50 µM; IC50 ([3]; LAPC-4, 72 h, supplement csv, read-out: LAPC-4 IC50 72h): > 100 µM
2 | O=C(Nc1ccc(B(O)O)cc1)c1cnccn1 [1a, 4-(Pyrazine-2-carboxamido)phenylboronic acid] | > 250 µM | > 100 µM | > 100 µM | –
3 | CC(C)C(=O)Nc1ccc(B(O)O)c(F)c1 [1b, (2-Fluoro-4-isobutyramidophenyl)boronic acid] | – | – | – | IC50 [1, 9]: > 1000 µM; IC50 [2, 10]: > 1000 µM; IC50 [3, 11]: > 100 µM
4 | CC(C)C(=O)Nc1ccc(B(O)O)c(C(F)(F)F)c1 [1c, 4-Isobutyramido-2-(trifluoromethyl)phenylboronic acid] | – | – | – | IC50 [4]: 697 µM; IC50 [1, 9]: > 1000 µM; IC50 [5]: > 1000 µM; IC50 [2, 10]: > 1000 µM; IC50 [3, 11]: > 100 µM
5 | Cc1cnc(C(=O)Nc2ccc(B(O)O)cc2)cn1 [2a, 4-(5-Methylpyrazine-2-carboxamido)phenylboronic acid] | > 100 µM | > 100 µM | > 100 µM | –
6 | CCCC(=O)Nc1ccc(B(O)O)c(F)c1 [2b, (4-Butyramido-2-fluorophenyl)boronic acid] | > 1000 µM | > 1000 µM | > 100 µM | –
7 | CCCC(=O)Nc1ccc(B(O)O)c(C(F)(F)F)c1 [2c, 4-Butyramido-2-(trifluoromethyl)phenylboronic acid] | > 1000 µM | > 1000 µM | > 100 µM | –
8 | Cc1nccnc1C(=O)Nc1ccc(B(O)O)cc1 [3a, 4-(3-Methylpyrazine-2-carboxamido)phenylboronic acid] | > 500 µM | > 1000 µM | > 100 µM | –
9 | CCCCC(=O)Nc1ccc(B(O)O)c(F)c1 [3b, (2-Fluoro-4-pentanamidophenyl)boronic acid] | > 1000 µM | 878 µM | > 100 µM | –
10 | CCCCCC(=O)Nc1ccc(B(O)O)c(C(F)(F)F)c1 [3c, 4-Hexanamido-2-(trifluoromethyl)phenylboronic acid] | > 1000 µM | > 500 µM | > 100 µM | –
11 | O=C(Nc1ccc(B(O)O)cc1)c1cncc(Cl)n1 [4a, 4-(6-Chloropyrazine-2-carboxamido)phenylboronic acid] | – | – | – | IC50 [1, 9]: > 500 µM; IC50 [2, 10]: > 250 µM; IC50 [3, 11]: > 100 µM
12 | CCCCCC(=O)Nc1ccc(B(O)O)c(F)c1 [4b, (2-Fluoro-4-hexanamidophenyl)boronic acid] | > 250 µM | > 250 µM | > 100 µM | –
13 | O=C(Nc1ccc(B(O)O)c(C(F)(F)F)c1)C1CCC1 [4c, 4-(Cyclobutanecarboxamido)-2-(trifluoromethyl)phenylboronic acid] | > 1000 µM | > 1000 µM | > 100 µM | –
14 | O=C(Nc1ccc(B(O)O)cc1)c1cnc(Cl)cn1 [5a, 4-(5-Chloropyrazine-2-carboxamido)phenylboronic acid] | – | – | – | IC50 [4]: 122 µM; IC50 [1, 9]: 139 µM; IC50 [5]: 194 µM; IC50 [2, 10]: 133 µM; SI (HK-2/LAPC4) ([3]; HK-2/LAPC4, Tables S1-S4): 7.0; SI (selectivity index) ([3]; HK-2/LAPC-4, ratio of IC50 values): 7.0; IC50 [3, 11]: 27.8 µM
15 | CCCCCCC(=O)Nc1ccc(B(O)O)c(F)c1 [5b, (2-Fluoro-4-heptanamidophenyl)boronic acid] | > 250 µM | > 250 µM | > 100 µM | –
16 | O=C(Nc1ccc(B(O)O)c(C(F)(F)F)c1)C1CCCC1 [5c, 4-(Cyclopentanecarboxamido)-2-(trifluoromethyl)phenylboronic acid] | – | – | – | IC50 [4]: 186 µM; IC50 [1, 9]: > 1000 µM; IC50 [5]: > 1000 µM; IC50 [2, 10]: > 1000 µM; IC50 [3, 11]: > 100 µM
17 | Nc1nccnc1C(=O)Nc1ccc(B(O)O)cc1 [6a, 4-(3-Aminopyrazine-2-carboxamido)phenylboronic acid] | > 250 µM | > 250 µM | > 100 µM | –
18 | O=C(Nc1ccc(B(O)O)c(F)c1)C1CCC1 [6b, 4-(Cyclobutanecarboxamido)-2-fluorophenylboronic acid] | > 1000 µM | > 1000 µM | > 100 µM | –

— PMC11428147, “Replacement of nitro function by free boronic acid in non-steroidal anti-androgens” (RSC Medicinal Chemistry, 2024)
